Reference: ChEMBL document CHEMBL1770110, “Pyrimido[4,5-d]azepines as potent and selective 5-HT2C receptor agonists: design, synthesis, and evaluation of PF-3246799 as a treatment for urinary incontinence” (Bioorg Med Chem Lett, 2011)
Calls of active or inactive are those of the source. The calls are words filed in the database; no cut-off is given here.

What was measured:
[1] = molecular target: T1, 5-hydroxytryptamine receptor 2C (Homo sapiens) (UniProt P28335); test: Agonist activity at human 5HT2C receptor expressed in CHO-K1 cells assessed as increase of fluorescence based calcium mobilization by FLIPR assay relative to control; assay type: functional, cell-based
T1 sequence (whole entry): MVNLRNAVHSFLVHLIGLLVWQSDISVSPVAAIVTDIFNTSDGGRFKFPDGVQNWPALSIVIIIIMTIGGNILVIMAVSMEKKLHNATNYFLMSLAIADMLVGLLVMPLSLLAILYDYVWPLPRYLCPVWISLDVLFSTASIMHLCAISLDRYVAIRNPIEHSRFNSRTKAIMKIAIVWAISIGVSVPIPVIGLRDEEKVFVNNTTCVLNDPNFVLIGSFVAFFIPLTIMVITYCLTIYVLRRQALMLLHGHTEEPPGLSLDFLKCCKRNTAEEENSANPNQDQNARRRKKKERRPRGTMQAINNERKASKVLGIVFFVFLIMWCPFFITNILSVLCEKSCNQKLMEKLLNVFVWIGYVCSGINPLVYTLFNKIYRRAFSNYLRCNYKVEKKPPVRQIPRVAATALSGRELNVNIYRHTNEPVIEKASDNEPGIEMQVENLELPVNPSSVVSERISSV

[2] = molecular target: T2, 5-hydroxytryptamine receptor 2B (Homo sapiens, UniProt P41595); test: Agonist activity at human 5HT2B receptor expressed in CHO-K1 cells assessed as increase of fluorescence based calcium mobilization by FLIPR assay; assay type: functional, cell-based
T2 sequence (P41595 whole entry): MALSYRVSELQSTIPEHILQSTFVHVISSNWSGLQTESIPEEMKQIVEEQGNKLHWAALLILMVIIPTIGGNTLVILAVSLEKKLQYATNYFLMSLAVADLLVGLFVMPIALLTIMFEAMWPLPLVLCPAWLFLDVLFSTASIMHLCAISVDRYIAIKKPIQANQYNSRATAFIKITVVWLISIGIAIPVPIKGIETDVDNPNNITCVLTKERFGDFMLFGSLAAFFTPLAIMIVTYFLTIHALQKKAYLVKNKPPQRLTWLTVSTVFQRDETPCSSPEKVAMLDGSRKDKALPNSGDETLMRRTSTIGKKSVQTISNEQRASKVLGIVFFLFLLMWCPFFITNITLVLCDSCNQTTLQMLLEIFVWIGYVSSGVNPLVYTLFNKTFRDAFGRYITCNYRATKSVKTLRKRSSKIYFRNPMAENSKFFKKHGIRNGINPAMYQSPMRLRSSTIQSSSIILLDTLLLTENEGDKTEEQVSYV

[3] = molecular target: T2, 5-hydroxytryptamine receptor 2B; test: Agonist activity at human 5HT2B receptor expressed in CHO-K1 cells assessed as increase of fluorescence based calcium mobilization by FLIPR assay relative to control; assay type: functional, cell-based
[4] = molecular target: T3, 5-hydroxytryptamine receptor 2C (Homo sapiens, UniProt P28335); test: Agonist activity at human 5HT2C receptor expressed in CHO-K1 cells assessed as increase of fluorescence based calcium mobilization by FLIPR assay; assay type: functional, cell-based
T3 sequence (P28335 whole entry): T1 sequence (whole entry)

[5] = Intrinsic clearance in human liver microsomes; assay type: ADME, Microsome
[6] = Intrinsic clearance in human hepatocytes assessed per 10^6 cells; assay type: ADME, cell-based, Liver, Hepatocyte
[7] = Intrinsic clearance in rat liver microsomes; assay type: ADME, Microsome
[8] = Intrinsic clearance in dog liver microsomes; assay type: ADME, Canis lupus familiaris, Microsome
[9] = Intrinsic clearance in rat hepatocytes assessed per 10^6 cells; assay type: ADME, cell-based, Liver, Hepatocyte
[10] = Intrinsic clearance in dog hepatocytes assessed per 10^6 cells; assay type: ADME, cell-based, Canis lupus familiaris, Liver, Hepatocyte
[11] = Elimination half life in CD rat at 1 mg/kg, iv administered as single bolus dose; assay type: ADME, organism-based; parameters: dose 1 mg/kg, route intravenous; settings: in vivo, read-out: beta t1/2 (converted)
[12] = Elimination half life in Beagle dog at 0.030 mg/kg, iv administered as single infusion over 1 hr; assay type: ADME, organism-based, Canis lupus familiaris; parameters: dose 0.03 mg/kg, route intravenous; settings: in vivo, 0.03 mg/kg, read-out: beta t1/2 (converted)
[13] = Plasma clearance in CD rat at 1 mg/kg, iv administered as single bolus dose; assay type: ADME, organism-based; parameters: dose 1 mg/kg, route intravenous
[14] = Plasma clearance in Beagle dog at 0.030 mg/kg, iv administered as infusion over 1 hr; assay type: ADME, organism-based, Canis lupus familiaris; parameters: dose 0.03 mg/kg, route intravenous; settings: 0.03 mg/kg
[15] = Volume of distribution in CD rat at 1 mg/kg, iv administered as single bolus dose; assay type: ADME, organism-based; parameters: dose 1 mg/kg, route intravenous; settings: in vivo
[16] = Volume of distribution in Beagle dog at 0.030 mg/kg, iv administered as infusion over 1 hr; assay type: ADME, organism-based, Canis lupus familiaris; parameters: dose 0.03 mg/kg, route intravenous; settings: in vivo, 0.03 mg/kg
[17] = Cmax in CD rat at 2 mg/kg, po administered as single dose; assay type: ADME, organism-based; parameters: dose 2 mg/kg, route oral; settings: in vivo
[18] = Tmax in CD rat at 2 mg/kg, po administered as single dose; assay type: ADME, organism-based; parameters: dose 2 mg/kg, route oral; settings: in vivo
[19] = test system: Rattus norvegicus; test: AUC (0 to infinity) in CD rat at 2 mg/kg, po administered as single dose; assay type: ADME, organism-based, Plasma; parameters: time infinity, dose 2 mg/kg, route oral; settings: in vivo
[20] = Oral bioavailability in CD rat at 2 mg/kg administered as single dose; assay type: ADME, organism-based; settings: in vivo
[21] = test system: Canis familiaris; test: Increase of peak urethral pressure in iv dosed anesthetized dog stress urinary incontinence model at 20 to 45 nM of free plasma concentration relative to control; assay type: functional, Canis lupus familiaris, Urethra
[22] = Dissociation constant, pKa of the compound; assay type: physicochemical
[23] = Drug excretion in CD rat urine at 1 mg/kg, iv administered as single bolus dose; assay type: ADME, organism-based; parameters: dose 1 mg/kg, route intravenous
[24] = molecular target: T1, 5-hydroxytryptamine receptor 2C (Homo sapiens); test: Agonist activity at human 5HT2C receptor expressed in CHO-K1 cells assessed as increase of fluorescence based calcium mobilization at 10 uM by FLIPR assay relative to control; assay type: functional, cell-based
[25] = molecular target: T3, 5-hydroxytryptamine receptor 2C; test: Displacement of [3H][…] from human 5HT2C receptor expressed in Swiss mouse 3T3 cells by scintillation proximity assay; assay type: cell-based, NIH3T3

| Structure (SMILES) | Emax [1] | EC50 [2] | Emax [3] | Emax [24] | also measured |
| --- | --- | --- | --- | --- | --- |
| Fc1cccc(Cc2ncc3c(n2)CCNCC3)c1 | 67% | 183 nM | 66% |  |  |
| Cc1ccc(Cc2ncc3c(n2)CCNCC3)cc1 | 63% | 164 nM | 80% |  |  |
| c1ccc(CCc2ncc3c(n2)CNCC3)cc1 |  |  |  |  | Activity [1]: inactive |
| c1ccc(-c2ncc3c(n2)CNCC3)cc1 | 92% |  |  |  | EC50 [4]: 380 nM |
| FC(F)(F)c1cccc(Cc2ncc3c(n2)CCNCC3)c1 | 44% | 160 nM | 63% |  |  |
| c1ccc(Cc2ncc3c(n2)CCNCC3)cc1 |  |  |  |  | microsomal CLint [5]: < 7 µL/min/mg; hepatocyte CLint [6]: < 5 µL/min/1e6 cells; microsomal CLint [7]: 28 µL/min/mg; microsomal CLint [8]: < 7 µL/min/mg; hepatocyte CLint [9]: 15 µL/min/1e6 cells; hepatocyte CLint [10]: < 5 µL/min/1e6 cells; half-life [11]: 2.8 h; half-life [12]: 3.4 h; clearance [13]: 51 mL/min/kg; clearance [14]: 11.6 mL/min/kg; Vd [15]: 8.9 L/kg; Vd [16]: 3.5 L/kg; Cmax [17]: 49 ng/mL; Tmax [18]: 0.25 h; AUC [19]: 290 ng·h/mL; bioavailability [20]: 44%; Activity [21]: 20%; pKa [22]: 8.5; dose excreted [23]: 10% |
| Cc1ccccc1Cc1ncc2c(n1)CCNCC2 | 70% | 1200 nM | 56% |  |  |
| Clc1ccccc1Cc1ncc2c(n1)CCNCC2 |  | 178 nM | 36% | 38% | Ki [25]: 1850 nM |
| Cc1cccc(Cc2ncc3c(n2)CCNCC3)c1 | 84% | 410 nM | 62% |  |  |
| c1ccc(CCc2ncc3c(n2)CCNC3)cc1 |  |  |  | 50% |  |
| c1ccc(Cc2ncc3c(n2)CNCC3)cc1 |  |  |  | 27% |  |
| Clc1cccc(Cc2ncc3c(n2)CCNCC3)c1 | 56% | 30 nM | 50% |  |  |
| c1ccc(Cc2ncc3c(n2)CCNC3)cc1 |  |  |  | 64% |  |
